# Experimental data from US20240165132A1, “METHODS AND MATERIALS FOR TREATING CANCER” (Mayo Foundation for Medical Education and Research, priority 2021, published 2024).
# Where two headings read alike, the source gives them in different places.
# Legend:
# Experiment in all cases: Senolytic drug screen, CellTiter-Glo viability
# Assay type in all cases: cell-based, human
# GBM123 = GBM123 (P3); for IC50: Homo sapiens, read-out: IC50 of A1331852
# Procedure: (§1) Human patient-derived glioblastoma lines were utilized and were cultured according to established protocols. Tumor lines maintained as patient-derived xenografts (PDX) are from the National PDX resource. Such lines are designated as “GBM-6, 10, 12, 39, 76, 123, 164, or 196”. Implantation of patient-derived glioblastoma cells, serial passage of flank tumor xenografts, and short-term explant culturing were done as described elsewhere, with some lines maintained in serum-containing media, and some lines maintained in serum free media as noted in Table 2 (see, for example, Carlson et al., Current protocols in pharmacology. Chapter 14(14):Unit 14.16 (2011)). Some cell lines were maintained from time of harvest as in vitro cell lines rather than PDX lines, as described elsewhere (see, for example, Himes et al., Neuro-oncology. 22(7):967-978 (2020)). Such lines are designated as dBT114, dBT116, dBT120, dBT132 (dBT=differentiated brain tumor). Culture conditions were unchanged after induction of senescence.
# (§2) After plating, cells were maintained in 10 cm culture dishes for 2-4 days until >50% confluent. Cells were then treated with TMZ for 7 days or radiation (cesium gamma radiator) with varying doses. Most experiments were performed after use of 15 Gy to induce senescence. Radiation and TMZ each caused death of a variable percentage of cells in the ensuing days. “Senescent” tumor cells used for experiments are designated by those that survive following TMZ or radiation treatments. Except for radiation doses of 4 Gy or below, no visible proliferation occurred within 1 month after treatment with TMZ or radiation. For initial screening of senolytic drugs, cells were maintained for at least 20 days after radiation or TMZ prior to re-plating cells into black walled optical 96-well plates (5000 cells/well) for doing drug treatment.
# (§3) Human glioblastoma cells were exposed to 10, 15 or 20 Gy radiation as indicated above. All GBM lines tested (Table 2) yielded a subpopulation of surviving non-proliferative cells used for subsequent experiments, with the exception of GM43 which yielded insufficient surviving cells for senescence experiments. All senolytic drugs used in this study were dissolved in DMSO (Table 1). Control (0 nM) cells were treated with the same dose of DMSO as cells with the highest drug concentration. Unless specified otherwise, cells were maintained in drug-containing media for four days prior to evaluation of cell viability using ATP lite, CellTiter-Glo assay according to company protocol (Cat #G7570). For all experiments, luminescence values are normalized to the 0 nM control for that cell line and radiation dose. All dose response graphs are depicted standard error of the mean (SEM) of 3 technical replicates at each concentration. Representative data are shown for experiments performed in independent replicates.
# (§4) Multiple linear regressions were used to assess the relationship of drug dose and treatment (e.g. control, radiation, TMZ) with cell inhibition within each cell line. For these models, cell inhibition was the outcome and drug dose, treatment, and the drug dose by treatment interaction were the independent predictors. If the drug dose by treatment interaction was significant (p<0.05), pairwise comparisons were made at each drug dose between treatment groups using a two-sample t-test. Statistical analysis was performed in Microsoft Excel. IC50 was calculated by nonlinear regression (Curve fit) of dose-response inhibition curve by using GraphPad prism 8.4.2.
# GBM10 = GBM10 (P2); for IC50: Homo sapiens, read-out: IC50 of A1331852
# Procedure: as §1, §2, §3, §4
# GBM12 = GBM12 (P3); for IC50: Homo sapiens, read-out: IC50 of A1331852
# Procedure: as §1, §2, §3, §4
# GBM164 = GBM164 (P2); for IC50: Homo sapiens, read-out: IC50 of A1331852
# Procedure: as §1, §2, §3, §4
# GBM76 = settings: for IC50: Homo sapiens
# Procedure: as §1, §2, §3, §4
# dBT132 = dBT132 (P10); for IC50: Homo sapiens, read-out: IC50 of A1331852
# Procedure: as §1, §2, §3, §4
# GBM6 = GBM6 (P4); for IC50: Homo sapiens, read-out: IC50 of A1331852
# Procedure: as §1, §2, §3, §4
# GBM39 = settings: for IC50: Homo sapiens
# Procedure: as §1, §2, §3, §4
# dBT120 = dBT120 (P10); for IC50: Homo sapiens, read-out: IC50 of A1331852
# Procedure: as §1, §2, §3, §4
# dBT116 = dBT116 (P8); for IC50: Homo sapiens, read-out: IC50 of A1331852
# Procedure: as §1, §2, §3, §4
# dBT114 = dBT114 (P11); for IC50: Homo sapiens, read-out: IC50 of A1331852
# Procedure: as §1, §2, §3, §4
# GBM196 = GBM196 (P2); for IC50: Homo sapiens, read-out: IC50 of A1331852
# Procedure: as §1, §2, §3, §4
structure (smiles),measurement,setting,value
Cc1c(-c2ccc(N3CCc4cccc(C(=O)Nc5nc6ccccc6s5)c4C3)nc2C(=O)O)cnn1CC12CC3CC(CC(C3)C1)C2 [A1331852],Relative sensitivity (RS),GBM123; control vs 15Gy,2.457
same,IC50,GBM123; 15Gy radiated,9.36 µM
same,IC50,GBM123; non-radiated control,23 µM
same,Relative sensitivity (RS),GBM10; control vs 15Gy,16.19
same,IC50,GBM10; 15Gy radiated,2.47 µM
same,IC50,GBM10; non-radiated control,40 µM
same,Relative sensitivity (RS),GBM12; control vs 15Gy,11.31 ± 8.282
same,IC50,GBM12; 15Gy radiated,22.9 ± 7.61 nM
same,IC50,GBM12; non-radiated control,390 ± 70 nM
same,Relative sensitivity (RS),GBM164; control vs 15Gy,3.824
same,IC50,GBM164; 15Gy radiated,77.7 nM
same,IC50,GBM164; non-radiated control,297 nM
same,Relative sensitivity (RS),"GBM76; GBM76 (P2), control vs 10Gy",31.77 ± 23.61
same,Relative sensitivity (RS),"GBM76; GBM76 (P2), control vs 15Gy",20.64 ± 5.633
same,Relative sensitivity (RS),"GBM76; GBM76 (P2), control vs 20Gy",34.24 ± 7.988
same,Relative sensitivity (RS),"GBM76; GBM76 (P3), control vs TMZ",28.21
same,IC50 in radiated vs non-radiated cells,"GBM76; GBM76, 10, 15, 20 Gy vs non-radiated control, 4 days drug",lower IC50 radiated cells
same,IC50,"GBM76; read-out: IC50 of A1331852, 10Gy, GBM76 (P2), 10Gy radiated",1000 ± 367 nM
same,IC50,"GBM76; read-out: IC50 of A1331852, 15Gy, GBM76 (P2), 15Gy radiated",1230 ± 416 nM
same,IC50,"GBM76; read-out: IC50 of A1331852, 20Gy, GBM76 (P2), 20Gy radiated",679 ± 49.2 nM
same,IC50,"GBM76; read-out: IC50 of A1331852, Control, GBM76 (P2), non-radiated control",23500 ± 6760 nM
same,IC50,"GBM76; read-out: IC50 of A1331852, Control, GBM76 (P3), control of TMZ series",1680 nM
same,IC50,"GBM76; read-out: IC50 of A1331852, TMZ, GBM76 (P3), TMZ treated",59.7 nM
same,IC50,"dBT132; 96 h, non-radiated control, 4 days drug",18.2 µM
same,IC50,dBT132; 10Gy radiated,4.31 µM
same,IC50,dBT132; 20Gy radiated,2.93 µM
same,Relative sensitivity (RS),dBT132; control vs 10Gy,4.214
same,Relative sensitivity (RS),dBT132; control vs 20Gy,6.192
same,Relative sensitivity (RS),GBM6; control vs 10Gy,26.58
same,Relative sensitivity (RS),GBM6; control vs 15Gy,26.58
same,Relative sensitivity (RS),GBM6; control vs 20Gy,16.72
same,IC50,GBM6; 10Gy radiated,532 nM
same,IC50,GBM6; 15Gy radiated,532 nM
same,IC50,GBM6; 20Gy radiated,845 nM
same,IC50,GBM6; non-radiated control,14100 nM
same,Relative sensitivity (RS),"GBM39; GBM39 (P2-3), control vs 15Gy",513.8149 ± 711.64
same,Relative sensitivity (RS),"GBM39; GBM39 (P2-3), control vs TMZ",41.02 ± 2.182
same,Relative sensitivity (RS),"GBM39; GBM39 (P3), control vs 20Gy",16.66 ± 11.88
same,IC50 in radiated vs non-radiated cells,"GBM39; GBM39, 15 Gy vs 0 Gy, 21 days after radiation, 4 days drug, p<0.0001",lower IC50 in radiated cells
same,IC50,"GBM39; GBM39, read-out: IC50 of A1331852, 15Gy, GBM39 (P2-3), 15Gy radiated",80.5 ± 93 nM
same,IC50,"GBM39; GBM39, read-out: IC50 of A1331852, 20Gy, GBM39 (P3), 20Gy radiated",71 ± 10.3 nM
same,IC50,"GBM39; GBM39, read-out: IC50 of A1331852, Control, GBM39 (P2-3), control of 15Gy series",108000 ± 152000 nM
same,IC50,"GBM39; GBM39, read-out: IC50 of A1331852, Control, GBM39 (P2-3), control of TMZ series",1720 ± 2180 nM
same,IC50,"GBM39; GBM39, read-out: IC50 of A1331852, Control, GBM39 (P3), control of 20Gy series",1300 ± 1010 nM
same,IC50,dBT120; 15Gy radiated,458 nM
same,IC50,dBT120; non-radiated control,5180 nM
same,Relative sensitivity (RS),dBT120; control vs 15Gy,11.31
same,IC50,dBT116; 20Gy radiated,63.5 nM
same,IC50,dBT116; non-radiated control,290 nM
same,Relative sensitivity (RS),dBT116; control vs 20Gy,4.566
same,IC50,dBT114; 15Gy radiated,0.338 ± 0.0721 µM
same,IC50,dBT114; non-radiated control,6.32 ± 1.09 µM
same,Relative sensitivity (RS),dBT114; control vs 15Gy,20.28 ± 7.55
same,Relative sensitivity (RS),GBM196; control vs 15Gy,10.72
same,IC50,GBM196; 15Gy radiated,2.55 µM
same,IC50,GBM196; non-radiated control,27.3 µM
